Experiments:
[1] = tested on: OCI-AML3 xenograft; test: Efficacy of onvansertib alone and in combination with venetoclax in an OCI-AML3 xenograft model (tumor volume, survival); format: in vivo, CB17 NOD.SCID mice; settings: for Average tumor volume: oral gavage; for Mean Diff. (vehicle vs. treatment), Dunnett's multiple comparisons test: tumor volumes from day 14
Procedure: In this example, the efficacy of onvansertib alone and in combination with venetoclax was evaluated in an OCI-AML3 xenograft model.
The OCI-AML3 cell line easily engrafts in NOD/SCID mice, maintaining the typical features of NPMc+ AML, including NPM cytoplasmic expression.
OCI-AML3 cells (DSMZ cat no: ACC 582) were cultured in RPMI supplemented with 10% FBS and 1%P/S, in a humidified incubator at 37° C. and 5% CO2. Normocin (Invivogen) was also added according to the manufacturer's recommendation to prevent mycoplasma growth.
(§1) CB17 NOD.SCID mice (female, 5 weeks old) were procured through Envigo (Strain NOD.CB17-Prkdc*scidNCrHsd). Mice were fed Teklad irradiated (sterilized) mouse diet and bedded with Teklad irradiated (sterilized) corncob bedding from Envigo (Indianapolis, Ind.). Mice were housed in Optimice carousel sterile quarters with filtered air supply in disposable cages from Animal Care Systems, Inc. (Centennial, Colo.).
On the day of implantation (Oct. 8, 2019), OCI-AML3 cells were collected and spun at 400 ×g. Media was aspirated and cells were resuspended in 50:50 *Cultrex:PBS (w/o calcium and magnesium) at a concentration of 1×10^8 cells/mL. A volume of 100 μL was injected into the right hind flank of each animal (a total of 1×10^7 cells). Filled syringes and cells were kept on ice to prevent gelling of matrigel. *Cultrex: BME, type 3, 17.24 mg/mL R&D systems Cat. #3632-005-02, Lot #40498J17
(§2) Tumor volumes were monitored, and, when mean tumor volume reached ˜200 mm^3, mice were stratified and placed into (4) treatment groups of (10) mice as outlined in Table 1.
(§3) Treatments were administered by oral gavage (polypropylene needles, Instech, Cat. FTP-20-38) daily for venetoclax for 14 days, and 5 days on 2 days off for two cycles for Onvansertib. For clarity, the combination was dosed so that venetoclax was given daily and the onvansertib was given 5 days on, 2 days off, just like the single agent groups.
Individual tumor volumes were measured by electronic caliper 2× a week.
Using tumor volumes from day 14 (the last day with all mice on study), an ordinary ANOVA test with a Dunnett's multiple comparison was performed using Prism (graphpad v. 8.3.0) (Table 4).
A survival graph was plotted (FIG. 2) and survival analysis (death=takedown for tumor burden limit) was also performed using Prism software (individual comparisons of survival curves using the Mantel-Cox test and Gehan-Breslow-Wilcoxon test shown in Table 5).

[2] = Animal health: body weight and tolerability in the OCI-AML3 xenograft study; format: in vivo, CB17 NOD.SCID mice; settings: the values are: relative body weight (ratio to day 0)
Excerpt: as §1, §2, §3
All dosing was performed without any unexpected problems noted. […] Therefore, the single agents and combination were tolerated at the tested dose and schedule.
The group average change in weight relative to day 0 of the study is shown in […]

[3] = tested on: OCI-AML3 xenograft; test: Efficacy of onvansertib alone and in combination with venetoclax in an OCI-AML3 xenograft model (tumor volume, survival); format: in vivo, CB17 NOD.SCID mice; settings: onvansertib 40 mg/kg
[4] = patients with advanced/metastatic solid tumors, cited from earlier work
[5] = molecular target: PLK1 (Homo sapiens, UniProt P53350); settings: including other PLK members; cited from earlier work
[6] = tested on: AML cell lines; settings: cited from earlier work
[7] = Day 0, venetoclax 75 mg/kg, onvansertib 30 mg/kg
[8] = Day 4, venetoclax 75 mg/kg, onvansertib 30 mg/kg
[9] = Day 7, venetoclax 75 mg/kg, onvansertib 30 mg/kg
[10] = Day 11, venetoclax 75 mg/kg, onvansertib 30 mg/kg
[11] = Day 14, venetoclax 75 mg/kg, onvansertib 30 mg/kg
[12] = Day 18, venetoclax 75 mg/kg, onvansertib 30 mg/kg

Sequence of PLK1 (P53350 whole entry): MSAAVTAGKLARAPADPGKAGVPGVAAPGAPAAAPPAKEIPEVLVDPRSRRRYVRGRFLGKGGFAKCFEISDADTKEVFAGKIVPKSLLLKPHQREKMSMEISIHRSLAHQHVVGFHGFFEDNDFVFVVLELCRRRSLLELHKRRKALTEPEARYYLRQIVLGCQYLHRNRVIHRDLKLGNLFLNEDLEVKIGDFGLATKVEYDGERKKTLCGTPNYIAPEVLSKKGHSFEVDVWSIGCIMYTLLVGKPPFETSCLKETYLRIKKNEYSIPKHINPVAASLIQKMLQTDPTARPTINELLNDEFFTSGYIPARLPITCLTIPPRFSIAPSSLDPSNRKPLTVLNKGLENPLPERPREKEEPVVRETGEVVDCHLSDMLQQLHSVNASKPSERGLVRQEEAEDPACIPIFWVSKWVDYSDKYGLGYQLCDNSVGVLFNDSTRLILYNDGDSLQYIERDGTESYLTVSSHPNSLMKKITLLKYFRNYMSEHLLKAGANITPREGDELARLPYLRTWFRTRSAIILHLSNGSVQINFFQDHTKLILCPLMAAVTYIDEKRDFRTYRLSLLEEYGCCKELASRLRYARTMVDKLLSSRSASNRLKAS

| Structure (SMILES) | Average tumor volume [1, 7] | Average tumor volume [1, 8] | Average tumor volume [1, 9] | Average tumor volume [1, 10] | Average tumor volume [1, 11] | Average tumor volume [1, 12] | Mean Diff. (vehicle vs. treatment), Dunnett's multiple comparisons test [1] | Relative body weight (ratio to day 0) ([2]; Day 0) | Relative body weight (ratio to day 0) ([2]; Day 4) | Relative body weight (ratio to day 0) ([2]; Day 7) | Relative body weight (ratio to day 0) ([2]; Day 11) | Relative body weight (ratio to day 0) ([2]; Day 14) | Relative body weight (ratio to day 0) ([2]; Day 18) | further results |
| --- | --- | --- | --- | --- | --- | --- | --- | --- | --- | --- | --- | --- | --- | --- |
| CN1CCN(c2ccc(OC(F)(F)F)c(Nc3ncc4c(n3)-c3c(c(C(N)=O)nn3CCO)CC4)c2)CC1 [Onvansertib, 1-(2-hydroxyethyl)-8-{[5-(4-methylpiperazin-1l-yl)-2-(trifluoromethoxy)phenyl]amino}-4,5-dihydro-1H-pyrazolo[4,3-h] quinazoline-3-carboxamide] | 208.48 mm^3 | 367.54 mm^3 | 708.38 mm^3 | 980.01 mm^3 | 1461.86 mm^3 | 2269.05 mm^3 | 960 | 1 | 1.04 | 1.07 | 1.1 | 1.13 | 1.18 | Significant? Dunnett's multiple comparisons test ([1]; tumor volumes from day 14, vehicle vs. treatment): Yes; Survival, Gehan-Breslow-Wilcoxon test, Are the survival curves sig different? ([1]; vehicle vs. treatment): Yes; Survival, Log-rank (Mantel-Cox) test, Are the survival curves sig different? ([1]; vehicle vs. treatment): No; Survival, Log-rank (Mantel-Cox) test, Chi square ([1]; vehicle vs. treatment, death = takedown for tumor burden limit): 3.577; Survival, Gehan-Breslow-Wilcoxon test, Chi square ([1]; vehicle vs. treatment, higher weighing for early events): 5.221; Activity in the OCI-AML3 xenograft (conclusion) ([1]; venetoclax 75 mg/kg, onvansertib 30 mg/kg, and the combination): Activity was noted; Tumor growth inhibition as single agent ([1]; venetoclax 75 mg/kg, onvansertib 30 mg/kg): some tumor growth inhibition; Single agent activity in the previous study [3]: single agent activity; Half-life [4]: 20 and 30 hours; Primary dose-limiting toxicities ([4]; reversible, recovery within 3 weeks): neutropenia and thrombocytopenia; Specificity for PLK1 among a panel of 296 kinases [5]: high specificity; Concentrations that inhibited cell proliferation [6]: nanomolar concentrations |
| CC1(C)CCC(CN2CCN(c3ccc(C(=O)NS(=O)(=O)c4ccc(NCC5CCOCC5)c([N+](=O)[O-])c4)c(Oc4cnc5[nH]ccc5c4)c3)CC2)=C(c2ccc(Cl)cc2)C1 [Venetoclax] | 203.78 mm^3 | 441.01 mm^3 | 861.05 mm^3 | 1362.15 mm^3 | 2110.23 mm^3 | 2856.33 mm^3 | 311.6 | 1 | 1.03 | 1.07 | 1.09 | 1.12 | 1.15 | – |

— US20230113501A1, “TREATMENT OF LEUKEMIAS AND LYMPHOMAS WITH COMBINATIONS OF BCL-2 INHIBITORS AND PLK1 INHIBITORS” (Cardiff Oncology, Inc., priority 2020, published 2023)
